Reference: patent US5830994A, “Peptide derivatives of alpha-MSH and their application” (Institut Europeen De Biologie Cellulaire, priority 1993, dated 1998)

System: Interleukin-1α
Assay: Inhibition of the synthesis of Interleukin 1 (IL1α) induced by LPS in mice, serum ELISA
Type: in vivo, BALB/C mice
Protocol: Study of the immunosuppressive activity of the derivative compound 4 on the inhibition of the synthesis of Interleukin 1 "IL1" in mice.
The secretion of IL1 is induced by the parenteral administration of lipopolysaccharides "LPS" to BALB/C mice.
Compound 4 (P-IV) is dissolved in physiological saline. It is assayed quantitatively by spectrophotometry at 280 nm (assay of Tryptophan) which allows an accurate assay of "P-IV" in the solutions which are stored at -25° C.
Extracts of Escherichia Coli serotype 0127 - B8 -"Ref. SIGMA - L3137" are used at the concentration of 6 mg/ml in physiological saline.
BALB/C mice--females--5 weeks old, obtained from IFFA - CREDO subjected to a photoperiod of 12 hours of light per 24 hours water and feed ad libitum
the other based on a single treatment, consequently much more rapid, will serve for the control of the PIV activity ("DAYNES" technique).
The animals in the control batches receive an injection of 0.2 ml of physiological saline subcutaneously, the animals in the PIV batches receive an injection of the product at various dosages subcutaneously. This treatment takes place for 5 days.
Forty-eight hours after the treatment with PIV, a sublethal dose of LPS (1.2 mg in 0.2 ml of physiological saline) is injected intraperitoneally into each animal in the PIV batches and in the positive control batch.
One hundred and eighty minutes later, all the mice were punctured through the retroorbital sinuses on dry tubes. As soon as the blood coagulates, the clot is detached. The blood is centrifuged for 10 minutes at 1800 g at a temperature of 10° C.
40 μg of PIV in 0.2 ml of physiological saline--that is to say 200 μg/ml
25 Ag of PIV in 0.2 ml of physiological saline--that is to say 125 μg/ml
10 μg of PIV in 0.2 ml of physiological saline--that is to say 50 μg/ml
The animals in the control batches receive an injection of 0.2 ml of physiological saline intravenously.
The animals in the PIV batches receive an injection of the product at various dosages intravenously. (Caudal vein)
Immediately afterwards, a sublethal dose of LPS (1.2 mg years [sic] 0.2 ml of physiological saline) is injected intraperitoneally into each animal in the PIV batches and into the positive control batches.
One hundred and eighty minutes later, all the mice are punctured through the retroorbital sinuses on dry tubes. As soon as the blood coagulates, the clot is detached. The blood is centrifuged for 10 minutes at 1800 g at a temperature of 10° C. The sera once collected are frozen at -25° C.
The Interleukin-1α contained in these sera is assayed 24 hours after the sampling with the murine IL1α ELISA assay Kit (ref. 1900 GENZYME)
Rapid description of the Kit: the method used for this assay is of the sandwich type.
A first anti-murine IL1α monoclonal antibody is used
The samples are then deposited, then a second biotinylated anti-IL1α antibody is caused to react.
The coloured reaction uses tetramethylbenzidine (TMB)
The reading is made at 450 nm on a MULTISKAN MCC 340 MKII (TITERTEK) plate reader.

[(DL) Lip] His - D.homoPhe - Arg - Trp - NH2 [PIV]
mean decreases in IL1α (50 μg/ml, five studies): 50%
mean decreases in IL1α (125 μg/ml, five studies): 50%
mean decreases in IL1α (200 μg/ml, five studies): 60%
mean decreases in IL1α (all dosages, all the five studies): ~55%
decrease in the synthesis of Interleukin-1α relative to the control (with the two methodologies used (SHEEHAN and DAYNES)): at least 50%
